Assay results as given in ChEMBL document CHEMBL1142363, “Rhodanine derivatives as novel inhibitors of PDE4” (Bioorg Med Chem Lett, 2008).
Active and inactive are the calls of the source. The rule behind the calls is not given here.

What was measured:
[1] = molecular target: cGMP-inhibited 3',5'-cyclic phosphodiesterase 3A (Homo sapiens, UniProt Q14432); assay: Inhibition of PDE3A
[2] = molecular target: 3',5'-cyclic-AMP phosphodiesterase 4B (Homo sapiens, UniProt Q07343); assay: Inhibition of PDE4B
Sequence of 3',5'-cyclic-AMP phosphodiesterase 4B (Q07343 whole entry): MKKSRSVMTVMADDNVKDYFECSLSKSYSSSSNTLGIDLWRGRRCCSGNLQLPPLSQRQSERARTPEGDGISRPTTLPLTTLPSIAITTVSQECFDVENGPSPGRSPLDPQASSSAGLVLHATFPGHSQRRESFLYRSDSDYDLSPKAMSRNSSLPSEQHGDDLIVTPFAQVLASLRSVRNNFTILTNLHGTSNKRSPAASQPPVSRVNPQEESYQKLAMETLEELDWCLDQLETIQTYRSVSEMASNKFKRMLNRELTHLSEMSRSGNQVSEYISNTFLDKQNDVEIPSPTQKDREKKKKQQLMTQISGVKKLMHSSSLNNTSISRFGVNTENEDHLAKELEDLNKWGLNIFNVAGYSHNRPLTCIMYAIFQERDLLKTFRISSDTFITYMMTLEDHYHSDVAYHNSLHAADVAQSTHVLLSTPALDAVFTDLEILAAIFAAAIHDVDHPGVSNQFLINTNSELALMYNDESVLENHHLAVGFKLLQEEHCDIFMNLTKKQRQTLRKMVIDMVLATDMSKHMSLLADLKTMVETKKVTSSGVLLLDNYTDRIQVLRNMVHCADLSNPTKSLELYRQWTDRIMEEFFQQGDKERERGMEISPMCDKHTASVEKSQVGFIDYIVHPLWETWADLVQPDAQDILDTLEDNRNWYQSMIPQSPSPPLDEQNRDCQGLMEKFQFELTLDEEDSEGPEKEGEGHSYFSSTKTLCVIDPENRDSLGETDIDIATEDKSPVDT

Sequence of cGMP-inhibited 3',5'-cyclic phosphodiesterase 3A (Q14432 whole entry): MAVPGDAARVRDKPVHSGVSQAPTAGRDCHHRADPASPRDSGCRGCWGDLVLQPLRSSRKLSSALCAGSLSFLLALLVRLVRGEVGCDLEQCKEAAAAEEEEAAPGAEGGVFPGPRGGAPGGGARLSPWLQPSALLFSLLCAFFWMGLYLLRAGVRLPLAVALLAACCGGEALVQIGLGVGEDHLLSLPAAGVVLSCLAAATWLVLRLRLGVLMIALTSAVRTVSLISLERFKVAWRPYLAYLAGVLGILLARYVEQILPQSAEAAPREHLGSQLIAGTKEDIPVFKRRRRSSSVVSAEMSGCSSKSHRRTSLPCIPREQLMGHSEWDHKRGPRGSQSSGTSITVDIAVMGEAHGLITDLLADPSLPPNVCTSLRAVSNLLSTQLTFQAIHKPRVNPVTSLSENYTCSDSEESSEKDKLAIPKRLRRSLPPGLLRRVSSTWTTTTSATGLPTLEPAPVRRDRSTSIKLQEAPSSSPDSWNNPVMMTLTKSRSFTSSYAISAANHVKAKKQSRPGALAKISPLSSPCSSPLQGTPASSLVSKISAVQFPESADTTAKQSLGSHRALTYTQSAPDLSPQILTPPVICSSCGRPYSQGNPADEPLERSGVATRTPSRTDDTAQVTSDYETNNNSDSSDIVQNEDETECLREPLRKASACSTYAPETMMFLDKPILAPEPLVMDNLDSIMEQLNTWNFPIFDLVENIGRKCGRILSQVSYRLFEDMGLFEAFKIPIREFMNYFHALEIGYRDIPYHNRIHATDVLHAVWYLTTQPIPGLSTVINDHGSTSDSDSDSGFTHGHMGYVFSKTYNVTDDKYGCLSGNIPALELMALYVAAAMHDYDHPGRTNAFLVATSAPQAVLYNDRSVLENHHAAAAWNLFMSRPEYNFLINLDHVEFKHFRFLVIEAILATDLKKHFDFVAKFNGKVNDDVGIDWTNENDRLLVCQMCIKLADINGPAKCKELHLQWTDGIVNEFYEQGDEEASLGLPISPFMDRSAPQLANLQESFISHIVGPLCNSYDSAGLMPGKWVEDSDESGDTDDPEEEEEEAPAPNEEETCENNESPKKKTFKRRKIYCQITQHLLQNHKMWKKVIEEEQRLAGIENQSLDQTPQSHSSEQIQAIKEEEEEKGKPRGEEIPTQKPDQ

| SMILES | IC50 [1] [µM] | IC50 [2] [µM] | Activity [2] | Activity [1] |
| --- | --- | --- | --- | --- |
| CCOc1ccc(/C=C2\SC(=S)NC2=O)cc1OCC | 80 | 6.51 | – | – |
| CCOc1cc(/C=C2\SC(=S)NC2=O)ccc1OC | 39.8 | 5.3 | – | – |
| COc1ccc(/C=C2\SC(=N)NC2=O)cc1OC1CCCC1 [PSEUDOTHIOHYDANTOIN] | – | 0.31 | – | inactive |
| COc1ccc(C2CNC(=O)C2)cc1OC1CCCC1 (stereo not drawn) | – | – | – | inactive |
| COc1ccc(/C=C2\SC(=S)N(C)C2=O)cc1OC1CCCC1 | – | 2.87 | – | inactive |
| COc1ccc(/C=C2\CCNC2=O)cc1OC1CCCC1 | – | 4.01 | – | inactive |
| COc1ccc(/C=C2\SC(=S)NC2=O)cc1O | – | – | inactive | – |
| COc1cccc(/C=C2\SC(=S)NC2=O)c1OC | – | 54.7 | – | – |
| CCOc1ccc(/C=C2\SC(=S)NC2=O)cc1OC | 9.46 | 6.91 | – | – |
| COc1ccc(/C=C2\SC(=S)NC2=O)cc1OC1CCCCC1 | – | 1.94 | – | inactive |
| C=CCN1C(=O)/C(=C/c2ccc(OC)c(OC3CCCC3)c2)SC1=S | – | 4.13 | – | inactive |
| C=CCOc1cc(/C=C2\SC(=S)NC2=O)ccc1OC | – | 3.08 | – | inactive |
| COc1ccc(/C=C2\SC(=S)NC2=O)cc1OCc1ccccc1 | – | – | inactive | – |
| COc1ccc(/C=C2\SC(=O)N(Cc3ccccc3)C2=O)cc1OC1CCCC1 | – | – | inactive | – |
| O=C1NC(=S)S/C1=C\c1ccc2c(c1)OCO2 | – | – | inactive | – |
| COc1ccc(/C=C2\SC(=O)NC2=O)cc1OC1CCCC1 | – | 1.09 | – | inactive |
| O=C1NC(=S)S/C1=C\c1ccc(O)c(O)c1 | – | – | inactive | – |
| COc1cccc(/C=C2\SC(=S)NC2=O)c1 | – | – | inactive | – |
| COc1cc(/C=C2\SC(=S)NC2=O)ccc1OC1CCCC1 | 28.5 | 30.4 | – | – |
| COc1cc(/C=C2\SC(=S)NC2=O)cc(OC)c1OC | – | 64.8 | – | – |
| COc1ccc(/C=C2\SC(=S)NC2=O)cc1 | – | – | inactive | – |
| CCOc1ccc(/C=C2\SC(=S)NC2=O)cc1OC1CCCC1 | 25 | 1.85 | – | – |
| COc1ccc(/C=C2\SC(=S)NC2=O)cc1OC1CCCC1 | 10.8 | 0.89 | – | – |
| COc1cc(/C=C2\SC(=S)NC2=O)ccc1O | – | – | inactive | – |

The next lines start with the values.

| IC50 [1] [µM] | IC50 [2] [µM] | Activity [2] | Activity [1] | SMILES |
| --- | --- | --- | --- | --- |
| – | – | inactive | – | COc1ccc(/C=C2\SC(=S)N(CC(=O)O)C2=O)cc1OC |
| – | – | inactive | – | CCN1C(=O)/C(=C/c2ccc(OC)c(OC)c2)SC1=S |
| – | – | – | inactive | COc1ccc(/C=C2\SC(=S)NC2=O)cc1OC (stereo in doubt; 10a) [listing 1 of 2 here] |
| – | 0.74 | – | inactive | CCN1C(=O)/C(=C/c2ccc(O)c(OC)c2)SC1=S |
| – | – | inactive | – | COc1ccc(/C=C2\SC(=S)N(C)C2=O)cc1OC |
| – | 3.07 | – | inactive | COc1ccc(/C=C2\SC(=S)N(CC(=O)O)C2=O)cc1OC1CCCC1 |
| – | – | inactive | – | C=CCN1C(=O)/C(=C/c2ccc(OC)c(OC)c2)SC1=S |
| – | 11.2 | – | inactive | CCN1C(=O)/C(=C/c2ccc(OC)c(O)c2)SC1=S |
| – | 28.3 | – | – | COc1ccc(/C=C2\SC(=S)NC2=O)cc1OC (stereo in doubt; 10a) [listing 2 of 2 here] |
| 10.5 | 17.9 | – | – | COc1ccc(/C=C2\SC(=S)NC2=O)cc1OC (stereo in doubt; 2a) |
| – | 14.1 | – | inactive | COc1ccc(/C=C2\SC(=O)NC2=O)cc1OC |
